According to ChEMBL document CHEMBL1201862, “PubChem BioAssay data set” (2004):
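Five concentrations, 48 hours, 96-well plates. GI50 is the concentration that inhibits growth by half.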 Calls of active or inactive are those of the source. Cut-off read from the data, not from the text of the source: active = GI50 up to about 1.1 µM and inactive = higher.

Columns and labels:
Experiment in all cases: inhibition of tumour cell growth, NCI panel, 48 h
IGROV-1 = system: IGROV-1
UACC-257 = system: UACC-257
CCRF-CEM = system: CCRF-CEM
HCT-15 = system: HCT-15
Malme-3M = system: Malme-3M
SNB-19 = system: SNB-19
SF-295 = system: SF-295
SF-268 = system: SF-268
BT-549 = system: BT-549
SK-MEL-28 = system: SK-MEL-28
786-0 = system: 786-0
SK-MEL-5 = system: SK-MEL-5
HCC 2998 = system: HCC 2998
SN12C = system: SN12C
MCF7 = system: MCF7
MDA-MB-231 = system: MDA-MB-231
OVCAR-3 = system: OVCAR-3
T47D = system: T47D
DU-145 = system: DU-145
KM-20L2 = system: KM-20L2

C=CCOc1ccccc1/N=N/C(C#N)=N\Nc1ccccc1OCC=C
GI50 (IGROV-1): > 100 µM (inactive)
GI50 (UACC-257): > 100 µM (inactive)
GI50 (CCRF-CEM): > 100 µM (inactive)
GI50 (HCT-15): > 100 µM
GI50 (Malme-3M): > 100 µM (inactive)
GI50 (SNB-19): > 100 µM (inactive)
GI50 (SF-295): > 100 µM (inactive)
GI50 (SF-268): > 100 µM (inactive)
GI50 (BT-549): > 100 µM (inactive)
GI50 (SK-MEL-28): > 100 µM (inactive)
GI50 (786-0): > 100 µM (inactive)
GI50 (SK-MEL-5): > 100 µM (inactive)
GI50 (HCC 2998): 48.1 µM (inactive)
GI50 (SN12C): > 100 µM (inactive)
GI50 (MCF7): > 100 µM (inactive)
GI50 (MDA-MB-231): > 100 µM (inactive)
GI50 (OVCAR-3): > 100 µM (inactive)
GI50 (T47D): > 100 µM (inactive)
GI50 (DU-145): > 100 µM (inactive)

Cc1cn(C2CC3C(COCN3O)O2)c(=O)[nH]c1=O (stereo unspecified)
GI50 (IGROV-1): > 100 µM (inactive)
GI50 (UACC-257): > 100 µM (inactive)
GI50 (CCRF-CEM): > 100 µM (inactive)
GI50 (HCT-15): > 100 µM
GI50 (KM-20L2): > 100 µM (inactive)
GI50 (SNB-19): > 100 µM (inactive)
GI50 (SF-295): > 100 µM (inactive)
GI50 (SF-268): > 100 µM (inactive)
GI50 (SK-MEL-28): > 100 µM (inactive)
GI50 (786-0): > 100 µM (inactive)
GI50 (SK-MEL-5): > 100 µM (inactive)
GI50 (HCC 2998): > 100 µM (inactive)
GI50 (SN12C): > 100 µM (inactive)
GI50 (OVCAR-3): > 100 µM (inactive)

COC(=O)c1cc2c3ccccc3n(C(C)=O)c2cn1
GI50 (IGROV-1): 40.4 µM (inactive)
GI50 (UACC-257): > 100 µM (inactive)
GI50 (CCRF-CEM): 38.8 µM (inactive)
GI50 (HCT-15): 68.9 µM
GI50 (Malme-3M): > 100 µM (inactive)
GI50 (KM-20L2): > 100 µM (inactive)
GI50 (SNB-19): > 100 µM (inactive)
GI50 (SF-295): > 100 µM (inactive)
GI50 (SK-MEL-28): > 100 µM (inactive)
GI50 (786-0): > 100 µM (inactive)
GI50 (SK-MEL-5): > 100 µM (inactive)
GI50 (HCC 2998): > 100 µM (inactive)
GI50 (SN12C): > 100 µM (inactive)
GI50 (OVCAR-3): 98.6 µM (inactive)

CC(=O)Nc1cc(C(=O)Nc2cc(C(=O)N3CC(CCl)c4c3cc(N)c3ccccc43)nn2C)nn1C (stereo unspecified)
GI50 (IGROV-1): 0.0405 µM (active)
GI50 (UACC-257): 0.186 µM (active)
GI50 (CCRF-CEM): < 0.01 µM (active)
GI50 (HCT-15): 0.571 µM
GI50 (Malme-3M): 0.115 µM (active)
GI50 (SNB-19): 0.127 µM (active)
GI50 (SF-295): 0.287 µM (active)
GI50 (SF-268): < 0.0132 µM (active)
GI50 (BT-549): 0.185 µM (active)
GI50 (SK-MEL-28): 0.0782 µM (active)
GI50 (786-0): 0.0893 µM (active)
GI50 (SK-MEL-5): 0.0178 µM (active)
GI50 (HCC 2998): 0.115 µM (active)
GI50 (SN12C): < 0.01 µM (active)
GI50 (MCF7): 0.168 µM (active)
GI50 (MDA-MB-231): 0.185 µM (active)
GI50 (OVCAR-3): 0.23 µM (active)
GI50 (T47D): < 0.01 µM (active)
GI50 (DU-145): < 0.01 µM (active)
